Experiments:
Format in all cases: in vivo
[1] = test system: systemic lupus erythematosus (SLE) in MRL/MpJFASlpr mice; experiment: MRL/MpJFASlpr mouse model of systemic lupus erythematosus; details: 15 mg/kg IP QD
Experimental: A study designed to determine the effects of candidate anti-inflammatory agent Formula (II) in oral (PO), daily (QD) administration in the treatment of systemic lupus erythematosus (SLE) in MRL/MpJFASlpr mice. Formula (II) was preformulated in vehicle (0.4% HPMC, 0.1% Tween 80, with simethicone for antifoaming). The female MRL/MpJFASlpr mice were dosed with vehicle or Formula (II) (1, 5, or 25 mg/kg) daily (QD) by the oral (PO) route dosing, or they were dosed QD by the intraperitoneal (IP) route with the reference compound cyclophosphamide (15 mg/kg). Prior to dosing, the candidate anti-inflammatory agent was reconstituted either by vortexing or stirring. […]
Female MRL/MpJFASlpr mice (n=50) that were 8-9 weeks old and weighed approximately 28-41 grams (mean 34 g) at enrollment (mouse age approx. 12 weeks) were obtained from The Jackson Laboratory, Bar Harbor, Me. (stock number 000485). These mice were housed 3-5/cage in shoe-box polycarbonate cages with wire tops, wood chip bedding, and suspended food and water bottles. No concurrent medications were given.
When they were 12 weeks old (study day 0), the female MRL/MpJFASlpr mice (n=10/group) were randomized by body weight into 5 groups as shown above. Treatment was initiated after randomization and continued for […] (mouse age 12 weeks to 23 weeks).
Starting on study week one, and then every week thereafter urine from each animal was tested for proteinuria using the Clinitech Multistick test strip (Bayer). The animals were also observed daily for significant clinical signs, moribundity and mortality. […] Efficacy evaluation was based on animal body weights, proteinuria analysis, lymphadenopathy scores, skin lesion scores, organ weights, anti-dsDNA titers, clinical chemistry parameters, and histopathologic evaluation of the kidneys.
Any animals showing signs of morbundity were terminated immediately. At necropsy (3 h post-dose, mouse age 23 weeks), all remaining animals were anesthetized with Isoflurane and bled via cardiac puncture for serum and plasma (Li Heparin). The animals were bled to exsanguinate then euthanized by cervical dislocation. Spleens, kidneys (paired), and lymph nodes were collected and weighed. Kidneys were collected into 10% neutral buffered formalin (NBF). Spleens were placed in RPMI 1% FBS media for splenocyte isolation. Serum samples for potential clinical chemistry analysis were stored frozen at −80° C. until shipment to Antech Diagnostics. Plasma samples were stored frozen at −80° C. for mouse antidsDNA IgG analysis by ELISA.
Blood samples were drawn via cardiac puncture from Isoflurane anesthetized animals into serum separator microtainer tubes for clinical chemistries. Samples were shipped to Antech Diagnostics for analysis.

[2] = test system: established type II collagen-induced arthritis (CIA) in DBA/1 mice; experiment: 14-day mouse established type II collagen-induced arthritis (CIA), PO QD (Example 10); details: 0.2 mg/kg PO QD; mean(SE)
Experimental: Prior to dosing, the candidate anti-inflammatory agents were reconstituted either by vortexing or stirring. The candidate anti-inflammatory agents were administered to the DBA/1 mice daily (QD) by the oral (PO) route.
Immunization with heterologous type II collagen (CII) induces arthritis in mice of the DBA/1 strain, which is genetically susceptible to this disease. To develop an experimental model of autoimmunity more adequate for the study of human rheumatoid arthritis (RA), male DBA/1 mice were injected intradermally (ID) with bovine type II collagen to induce arthritis as reported by Trentham et al (Trentham D E, Townes A S, Kang A H Autoimmunity to type II collagen: an experimental model of arthritis. J. Exper. Med. 1977, 146:857-868) and Bendele A (Bendele A, Animal models of rheumatoid arthritis. J. Musculoskelet. Neuronal Interact. 2001, 1(4):377-85). Male DBA/1 mice (n=114) that were 6-7 weeks old and weighed approximately 18-27 grams (mean 22 g) at enrollment (arthritis day 1) were obtained from Taconic Farms, Inc. The male DBA/1 mice were at least 6 weeks old at time of first immunization and were housed 3-5/cage in shoe-box polycarbonate cages with wire tops, wood chip bedding, and suspended food and water bottles. These animals were identified by a distinct number of ink marks at the base of the tail delineating animal number. After enrollment, all cages were labeled with protocol number, group number, and animal numbers.
The male DBA/1 (n=10/group for arthritis) were anaesthetized with Isoflurane, shaved at the base of the tail, and injected intradermally with 150 μL of Freund's Complete Adjuvant (Difco, Detroit, Mich.) containing bovine type II collagen (BBP, batch #7) (1 mg/ml) at the base of the tail on day 0 and again on day 21. […] Randomization was done after swelling was obviously established in at least one paw (score of 1) and attempts were made to ensure approximately equal mean scores of 0.5-1 across groups at the time of enrollment. […] The male DBA/1 mice were terminated on arthritis day 14 (3 hours post-dose).
(§1) Efficacy evaluation of the administered anti-inflammatory agents was based on animal body weights, clinical arthritis scores, arthritis scores expressed as area under the curve (AUC), and histopathology on fore paws, hind paws, and knees. Histopathology results were expressed as 4 paws, knees only, or 6 joints (knees included). Day 13 was used as the endpoint for analysis of body weight change since the male DBA/1 mice were fasted overnight prior to necropsy on day 14.

[3] = test system: established type II collagen-induced arthritis (CIA) in DBA/1 mice; experiment: Mouse established CIA, dosing from arthritis day 8, QD or BID (Example 11)
Description: A study was designed to determine the efficacy of a covalently acting BTK inhibitor, Formula (II) in inhibiting acute inflammation, pannus formation, cartilage destruction, and bone resorption associated with established type II collagen-induced arthritis (CIA) in DBA/1 mice. Immunization with heterologous type II collagen (CII) induces arthritis in mice of the DBA/1 strain, which is genetically susceptible to this disease. To develop an experimental model of autoimmunity more adequate for the study of human rheumatoid arthritis (RA), male DBA/1 mice were injected intradermally (ID) with bovine type II collagen to induce arthritis as reported by Trentham et al (Trentham D E, Townes A S, Kang A H Autoimmunity to type II collagen: an experimental model of arthritis. J. Exper. Med. 1977, 146:857-868) and Bendele A (Bendele A, Animal models of rheumatoid arthritis. J. Musculoskelet. Neuronal Interact. 2001, 1(4):377-85).
Following acclimatization, 6-7 week old male DBA/1 mice (n=10/group for arthritis) were immunized at the base of the tail, with 150 μL of Freund's Complete Adjuvant (Difco, Detroit, Mich.) containing 1 mg/mL bovine type II collagen by intradermal injection. Immunizations were performed day 0 and again on day 21. On study days 25-26, on day 8 following onset of arthritis, the mice were randomized into treatment groups. […] Dosing began on arthritis day 8 by oral gavage. Groups were treated with vehicle (0.4% HPMC, 0.2% Tween 80), Formula (II) at 25 mg/kg QD, Formula (II) at 12.5 mg/kg BID, or the reference compound dexamethasone (Dex) at 0.2 mg/kg QD. These animals were fasted overnight on arthritis day 20 (13 days after enrollment) prior to necropsy on arthritis day 21. Clinical scores were given for each of the paws (right front, left front, right rear, left rear) on arthritis days 1-21.
as §1, with “evaluation” for “evaluation of the administered anti-inflammatory agents”, “19” for “13”, “21.” for “14.”
Necropsies were conducted on fasted mice and terminal serum, fore paws, hind paws, and knees were collected into 10% neutral buffered formalin (NBF) for microscopy. Spleens were harvested and weighed.

In the case of `O=P1(N(CCCl)CCCl)NCCCO1` (stereo not drawn) [Cyclophosphamide, cyclophosphamide, reference compound], the “Percent Survival” value [1] is reported as 100%, the “anti-dsDNA IgG levels in plasma, reduction vs Vehicle Disease Controls” value [1] is reported as 76% and the “Histopathology Glomerulus Diameter” value ([1]; All Animals, mean (SE)) is reported as “*67.73 (2.10)”. The “Histopathology Interstitial Inflammation” value ([1]; All Animals, mean (SE)) was “*0.95 (0.19)”, the “Histopathology Summed Score” value ([1]; All Animals, mean (SE)) was “*2.18 (0.57)” and the “Kidney (paired) Weight (g)” value ([1]; All Animals, mean (SE)) was “*0.432 (0.01) g”. The “Change in Body Weight (g) wk 1-12” value ([1]; Term Animals, mean (SE)) was 3.30 (0.32) g, the “Histopathology Glomerulus Diameter” value ([1]; Term Animals, mean (SE)) was “*67.73 (2.10)” and the “Histopathology Interstitial Inflammation” value ([1]; Term Animals, mean (SE)) was “*0.95 (0.19)”. For the same compound, the “Histopathology Summed Score” value ([1]; Term Animals, mean (SE)) was “*2.18 (0.57)”, the “Kidney (paired) Weight (g)” value ([1]; Term Animals, mean (SE)) was “*0.432 (0.01) g” and the “absolute cumulative lymph node weights, reduction vs Vehicle Disease Controls” value ([1]; all animals) was 87%. For the same compound, the “absolute kidney weights, reduction vs Vehicle Disease Controls” value ([1]; all animals) was 23%, the “absolute mesenteric lymph node weights, reduction vs Vehicle Disease Controls” value ([1]; all animals) was 76% and the “absolute spleen weights, reduction vs Vehicle Disease Controls” value ([1]; all animals) was 77%. For the same compound, the “glomerulus crescent score, reduction” value ([1]; all animals) was 100%, the “glomerulus diameter, reduction” value ([1]; all animals) was 89% and the “glomerulus score, reduction” value ([1]; all animals) was 88%. The “interstitial inflammation, reduction” value ([1]; all animals) was 74%, the “percent of glomeruli with crescents, reduction” value ([1]; all animals) was 100% and the “protein cast score, reduction” value ([1]; all animals) was 90%. For the same compound, the “summed histopathology scores, reduction” value ([1]; all animals) was 86%, the “vasculitis, reduction” value ([1]; all animals) was 82% and the “serum clinical chemistries vs Vehicle Disease Controls” value ([1]; all animals or term animals only) was “significantly increased ALB, A/G, alkaline phosphatase (ALK), GLU, and Na/K and significantly reduced globulin (GLOB), BUN, BUN/creatinine, K, and AMY”. For the same compound, the “urine protein scores vs Vehicle Disease Controls” value ([1]; all animals, mouse age 14-23 weeks) was “significantly reduced”, the “lymphadenopathy scores vs Vehicle Disease Controls” value ([1]; mouse age 15-23 weeks, all or term animals) was “significantly reduced” and the “skin lesion scores vs Vehicle Disease Controls” value ([1]; mouse age 20-23 weeks, all or term animals) was “significantly reduced”. For the same compound, the “absolute cumulative lymph node weights, reduction vs Vehicle Disease Controls” value ([1]; term animals) was 90%, the “absolute kidney weights, reduction vs Vehicle Disease Controls” value ([1]; term animals) was 32% and the “absolute mesenteric lymph node weights, reduction vs Vehicle Disease Controls” value ([1]; term animals) was 82%. The “absolute spleen weights, reduction vs Vehicle Disease Controls” value ([1]; term animals) was 82%, the “glomerulus crescent score, reduction” value ([1]; term animals only) was 100% and the “glomerulus diameter, reduction” value ([1]; term animals only) was 85%. For the same compound, the “glomerulus score, reduction” value ([1]; term animals only) was 86%, the “interstitial inflammation, reduction” value ([1]; term animals only) was 70% and the “percent of glomeruli with crescents, reduction” value ([1]; term animals only) was 100%. The “protein cast score, reduction” value ([1]; term animals only) was 86%, the “summed histopathology scores, reduction” value ([1]; term animals only) was 82% and the “vasculitis, reduction” value ([1]; term animals only) was 80%. For the same compound, the “urine protein scores vs Vehicle Disease Controls” value ([1]; term animals only, mouse age 14-16 and 19-23 weeks) was “significantly reduced” and the body weight gain ([1]; week 1 to week 5) was 1.03 g.

In the case of `C[C@@H]1C[C@H]2[C@@H]3CCC4=CC(=O)C=C[C@]4(C)[C@@]3(F)[C@@H](O)C[C@]2(C)[C@@]1(O)C(=O)CO` [Dex, dexamethasone, reference compound], the “AUC (All Paws) - Corrected for Initial Score” value [2] is reported as “*−5.85(0.73)”, the “Change in Body Weight (g)” value [2] is reported as −2.22(0.54) g and the “Histopathology Summed Score Knees” value [2] is reported as “*1.80(0.66)”. For the same compound, the “Histopathology Summed Score Paws” value [2] was “*0.09(0.09)”, the “Histopathology Summed Score Six-Joints” value [2] was “*0.66(0.21)” and the “Paw Score AUC (All Paws)” value [2] was “*1.30(0.37)”. For the same compound, the “AUC (All Paws) - Corrected for Initial Score” value ([3]; 0.2 mg/kg PO QD, mean(SE)) was “*−29.54(2.39)”, the “Change in Body Weight (g) Days 1-19” value ([3]; 0.2 mg/kg PO QD, mean(SE)) was −0.17(0.28) g and the “Histopathology Summed Score Knees” value ([3]; 0.2 mg/kg PO QD, mean(SE)) was “*5.23(0.89)”. For the same compound, the “Histopathology Summed Score Paws” value ([3]; 0.2 mg/kg PO QD, mean(SE)) was “*7.20(1.00)”, the “Histopathology Summed Score Six-Joints” value ([3]; 0.2 mg/kg PO QD, mean(SE)) was “*6.54(0.91)” and the “Paw Score AUC (All Paws)” value ([3]; 0.2 mg/kg PO QD, mean(SE)) was “*16.61(2.05)”. For the same compound, the “absolute spleen weights, reduction vs vehicle controls” value ([3]; 0.2 mg/kg QD) was 156%, the “knee bone resorption, reduction vs vehicle controls” value ([3]; 0.2 mg/kg QD) was 88% and the “knee cartilage damage, reduction vs vehicle controls” value ([3]; 0.2 mg/kg QD) was 39%. For the same compound, the “knee inflammation, reduction vs vehicle controls” value ([3]; 0.2 mg/kg QD) was 57%, the “knee pannus formation, reduction vs vehicle controls” value ([3]; 0.2 mg/kg QD) was 86% and the “six joint histopathology, reduction of summed scores” value ([3]; 0.2 mg/kg QD) was 57%. The “summed knee scores, reduction vs vehicle controls” value ([3]; 0.2 mg/kg QD) was 57%.
